Source: PubChem BioAssay (NCI)
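All cell lines were grown in 96-well plates and treated with compound for 48 hours. At the TGI there is no net growth.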

Key:
Assay in all cases: NCI tumour cell line growth inhibition, 48 h
[1] = tested on: SNB-19 CNS
[2] = tested on: NCI/ADR-RES ovarian
[3] = tested on: LOX IMVI melanoma
[4] = tested on: SF-295 CNS
[5] = tested on: SR leukemia
[6] = tested on: NCI-H23 lung
[7] = tested on: OVCAR-4 ovarian
[8] = tested on: SW-620 colon
[9] = tested on: CCRF-CEM leukemia
[10] = tested on: BT-549 breast
[11] = tested on: M14 melanoma
[12] = tested on: MDA-N
[13] = tested on: RXF 393 renal
[14] = tested on: T-47D breast
[15] = tested on: SNB-75 CNS
[16] = tested on: SK-OV-3 ovarian
[17] = tested on: HCC-2998 colon
[18] = tested on: MALME-3M melanoma
[19] = tested on: SK-MEL-2 melanoma
[20] = tested on: HL-60(TB) leukemia
[21] = tested on: U251 CNS
[22] = tested on: HOP-62 NSCLC
[23] = tested on: UACC-257 melanoma
[24] = tested on: 786-0 renal
[25] = tested on: SK-MEL-5 melanoma
[26] = tested on: MDA-MB-435
[27] = tested on: OVCAR-8 ovarian
[28] = tested on: HOP-92 NSCLC
[29] = tested on: TK-10 renal
[30] = tested on: EKVX NSCLC
[31] = tested on: HS 578T breast
[32] = tested on: DU-145 prostate
[33] = tested on: SF-268 CNS
[34] = tested on: SK-MEL-28 melanoma
[35] = tested on: MDA-MB-231 breast
[36] = tested on: HT29 colon
[37] = tested on: OVCAR-5 ovarian
[38] = tested on: A549 NSCLC
[39] = tested on: MCF7 breast
[40] = tested on: A498 renal
[41] = tested on: NCI-H460 lung
[42] = tested on: KM12 colon
[43] = tested on: SF-539 CNS
[44] = tested on: HCT-15 colon
[45] = tested on: CAKI-1 renal
[46] = tested on: ACHN renal
[47] = tested on: MOLT-4 leukemia
[48] = tested on: NCI-H522 lung
[49] = tested on: COLO 205 colon
[50] = tested on: UACC-62 melanoma
[51] = tested on: IGROV1 ovarian
[52] = tested on: SN12C renal
[53] = tested on: HCT-116 colon
[54] = tested on: RPMI-8226 leukemia
[55] = tested on: OVCAR-3 ovarian
[56] = tested on: K-562 leukemia
[57] = tested on: UO-31 renal
[58] = tested on: PC-3 prostate
[59] = tested on: NCI-H226 lung

CN(C)C(=O)O/N=C1/C(c2c(O)[nH]c3ccccc23)=Nc2ccccc21 was tested, and the TGI [1] was 39.1 µM, the TGI [2] was > 100 µM and the TGI [3] was > 100 µM. The TGI [4] was 68.8 µM, the TGI [5] was 35.4 µM and the TGI [6] was > 100 µM. The TGI [7] was 33.1 µM, the TGI [8] was > 100 µM and the TGI [9] was > 100 µM. For the same compound, the TGI [10] was 43.7 µM, the TGI [11] was > 100 µM and the TGI [12] was > 100 µM. For the same compound, the TGI [13] was 14.1 µM, the TGI [14] was 50.6 µM and the TGI [15] was 8.69 µM. For the same compound, the TGI [16] was 48.8 µM, the TGI [17] was > 100 µM and the TGI [18] was 30 µM. The TGI [19] was 33.4 µM, the TGI [20] was > 100 µM and the TGI [21] was 33.9 µM. The TGI [22] was 48.9 µM, the TGI [23] was > 100 µM and the TGI [24] was 21.8 µM. For the same compound, the TGI [25] was > 100 µM, the TGI [26] was > 100 µM and the TGI [27] was 66.1 µM. The TGI [28] was 33 µM, the TGI [29] was 57.1 µM and the TGI [30] was 33.5 µM. For the same compound, the TGI [31] was 40.2 µM, the TGI [32] was > 100 µM and the TGI [33] was 28.5 µM. The TGI [34] was > 100 µM, the TGI [35] was 65 µM and the TGI [36] was > 100 µM. For the same compound, the TGI [37] was > 100 µM, the TGI [38] was > 100 µM and the TGI [39] was > 100 µM. The TGI [40] was 18.1 µM, the TGI [41] was > 100 µM and the TGI [42] was > 100 µM. The TGI [43] was 21.4 µM, the TGI [44] was > 100 µM and the TGI [45] was 72.6 µM. The TGI [46] was > 100 µM, the TGI [47] was 41.5 µM and the TGI [48] was 75.3 µM. For the same compound, the TGI [49] was > 100 µM, the TGI [50] was 98.6 µM and the TGI [51] was 64 µM. The TGI [52] was > 100 µM, the TGI [53] was > 100 µM and the TGI [54] was > 100 µM. For the same compound, the TGI [55] was 57 µM, the TGI [56] was > 100 µM and the TGI [57] was > 100 µM.
For N#CC1(C#N)N[C@@H](c2ccsc2)[C@H]2C(=O)N(c3ccccc3)C(=O)[C@H]21, the TGI [2] was > 100 µM, the TGI [3] was > 100 µM and the TGI [4] was > 100 µM. The TGI [5] was 78.7 µM, the TGI [6] was > 100 µM and the TGI [8] was > 100 µM. For the same compound, the TGI [10] was > 100 µM, the TGI [12] was > 100 µM and the TGI [58] was > 100 µM. For the same compound, the TGI [13] was > 100 µM, the TGI [14] was > 100 µM and the TGI [15] was > 100 µM. For the same compound, the TGI [16] was > 100 µM, the TGI [18] was > 100 µM and the TGI [19] was > 100 µM. The TGI [20] was 42 µM, the TGI [21] was > 100 µM and the TGI [22] was > 100 µM. The TGI [23] was > 100 µM, the TGI [24] was > 100 µM and the TGI [25] was > 100 µM. For the same compound, the TGI [26] was > 100 µM, the TGI [27] was > 100 µM and the TGI [28] was > 100 µM. The TGI [29] was > 100 µM, the TGI [30] was > 100 µM and the TGI [31] was > 100 µM. For the same compound, the TGI [32] was > 100 µM, the TGI [33] was > 100 µM and the TGI [34] was > 100 µM. The TGI [35] was > 100 µM, the TGI [36] was > 100 µM and the TGI [38] was > 100 µM. For the same compound, the TGI [40] was > 100 µM, the TGI [42] was > 100 µM and the TGI [45] was > 100 µM. For the same compound, the TGI [46] was > 100 µM, the TGI [47] was > 100 µM and the TGI [59] was > 100 µM. The TGI [48] was > 100 µM, the TGI [49] was > 100 µM and the TGI [50] was > 100 µM. For the same compound, the TGI [51] was > 100 µM, the TGI [52] was > 100 µM and the TGI [53] was > 100 µM. For the same compound, the TGI [54] was 53.5 µM, the TGI [55] was > 100 µM and the TGI [56] was > 100 µM. The TGI [57] was > 100 µM.
